Reference: ChEMBL document CHEMBL2146454, “2,6-Naphthyridines as potent and selective inhibitors of the novel protein kinase C isozymes” (Bioorg Med Chem Lett, 2011)

Key:
[1] = target: Protein kinase C beta type (Homo sapiens, UniProt P05771); test: Inhibition of recombinant human PKCbeta1 assessed as [33P]-ATP incorporation into tridecapeptide substrate after 60 mins by scintillation proximity assay
[2] = target: Protein kinase C alpha type (Homo sapiens, UniProt P17252); test: Inhibition of recombinant human PKCalpha assessed as [33P]-ATP incorporation into tridecapeptide substrate after 60 mins by scintillation proximity assay
[3] = target: T1, Protein kinase C epsilon type (Homo sapiens, UniProt Q02156); test: Inhibition of recombinant human PKCepsilon assessed as [33P]-ATP incorporation into tridecapeptide substrate after 60 mins by scintillation proximity assay
T1 sequence (Q02156 whole entry): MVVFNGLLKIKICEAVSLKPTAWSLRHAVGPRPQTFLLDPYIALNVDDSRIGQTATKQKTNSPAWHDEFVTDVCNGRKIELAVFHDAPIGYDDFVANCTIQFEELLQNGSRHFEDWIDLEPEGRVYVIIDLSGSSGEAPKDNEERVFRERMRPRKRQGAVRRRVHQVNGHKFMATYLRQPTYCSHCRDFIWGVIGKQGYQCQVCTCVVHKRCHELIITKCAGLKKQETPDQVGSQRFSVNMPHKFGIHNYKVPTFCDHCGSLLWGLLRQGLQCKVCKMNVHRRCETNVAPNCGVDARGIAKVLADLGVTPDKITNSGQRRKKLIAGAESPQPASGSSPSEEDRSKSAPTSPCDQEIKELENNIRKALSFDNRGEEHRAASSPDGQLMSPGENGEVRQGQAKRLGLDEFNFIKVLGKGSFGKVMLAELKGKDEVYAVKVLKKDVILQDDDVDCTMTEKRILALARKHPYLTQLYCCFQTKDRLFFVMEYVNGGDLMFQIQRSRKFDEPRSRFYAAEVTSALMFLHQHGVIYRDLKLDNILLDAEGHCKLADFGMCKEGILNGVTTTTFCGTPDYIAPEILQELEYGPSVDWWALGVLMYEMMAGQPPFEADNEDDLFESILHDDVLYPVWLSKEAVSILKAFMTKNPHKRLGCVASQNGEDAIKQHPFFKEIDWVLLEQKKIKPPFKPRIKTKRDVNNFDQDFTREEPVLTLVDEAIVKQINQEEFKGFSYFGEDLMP

[4] = target: Protein kinase C eta type (Homo sapiens, UniProt P24723); test: Inhibition of recombinant human PKCeta assessed as [33P]-ATP incorporation into tridecapeptide substrate after 60 mins by scintillation proximity assay
Chain of Protein kinase C eta type (P24723 whole entry): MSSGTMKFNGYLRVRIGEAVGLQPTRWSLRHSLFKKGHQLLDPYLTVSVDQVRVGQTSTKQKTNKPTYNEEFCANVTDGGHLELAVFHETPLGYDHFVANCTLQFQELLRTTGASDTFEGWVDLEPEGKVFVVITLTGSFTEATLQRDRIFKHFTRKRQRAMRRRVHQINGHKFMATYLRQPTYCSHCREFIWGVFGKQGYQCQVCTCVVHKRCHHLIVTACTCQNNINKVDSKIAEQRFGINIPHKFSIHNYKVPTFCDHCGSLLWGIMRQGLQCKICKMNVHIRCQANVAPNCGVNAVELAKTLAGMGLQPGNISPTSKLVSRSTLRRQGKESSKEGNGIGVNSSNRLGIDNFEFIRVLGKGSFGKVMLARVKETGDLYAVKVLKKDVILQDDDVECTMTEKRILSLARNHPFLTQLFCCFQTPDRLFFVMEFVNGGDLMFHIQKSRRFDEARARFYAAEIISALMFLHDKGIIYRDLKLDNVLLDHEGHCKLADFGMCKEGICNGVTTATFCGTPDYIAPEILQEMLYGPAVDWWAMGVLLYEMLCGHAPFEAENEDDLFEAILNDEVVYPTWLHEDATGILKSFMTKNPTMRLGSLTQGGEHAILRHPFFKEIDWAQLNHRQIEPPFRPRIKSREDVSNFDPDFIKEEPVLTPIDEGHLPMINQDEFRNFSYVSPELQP

[5] = target: Protein kinase C theta type (Homo sapiens, UniProt Q04759); test: Inhibition of recombinant human PKCtheta assessed as [33P]-ATP incorporation into tridecapeptide substrate after 60 mins by scintillation proximity assay
Chain of Protein kinase C theta type (Q04759 whole entry): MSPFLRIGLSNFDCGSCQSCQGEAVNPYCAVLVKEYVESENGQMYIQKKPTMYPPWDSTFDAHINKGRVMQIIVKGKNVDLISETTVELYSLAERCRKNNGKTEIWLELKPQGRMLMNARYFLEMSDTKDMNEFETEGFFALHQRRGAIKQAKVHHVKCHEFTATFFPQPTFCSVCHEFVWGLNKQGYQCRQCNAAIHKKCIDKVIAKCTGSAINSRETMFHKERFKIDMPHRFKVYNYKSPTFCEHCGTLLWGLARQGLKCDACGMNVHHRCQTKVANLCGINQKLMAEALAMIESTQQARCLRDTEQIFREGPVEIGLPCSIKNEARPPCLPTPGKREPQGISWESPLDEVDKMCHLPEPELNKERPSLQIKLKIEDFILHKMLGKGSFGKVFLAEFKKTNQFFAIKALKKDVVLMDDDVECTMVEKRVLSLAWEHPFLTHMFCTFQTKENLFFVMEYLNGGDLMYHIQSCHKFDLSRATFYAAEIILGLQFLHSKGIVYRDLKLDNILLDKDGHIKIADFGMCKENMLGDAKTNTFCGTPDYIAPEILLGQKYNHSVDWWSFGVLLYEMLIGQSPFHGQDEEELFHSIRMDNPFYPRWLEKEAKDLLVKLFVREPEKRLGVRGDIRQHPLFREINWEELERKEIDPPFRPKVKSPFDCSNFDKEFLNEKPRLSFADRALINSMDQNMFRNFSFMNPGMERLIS

[6] = target: Protein kinase C delta type (Homo sapiens, UniProt Q05655); test: Inhibition of recombinant human PKCdelta assessed as [33P]-ATP incorporation into tridecapeptide substrate after 60 mins by scintillation proximity assay
Chain of Protein kinase C delta type (Q05655 whole entry): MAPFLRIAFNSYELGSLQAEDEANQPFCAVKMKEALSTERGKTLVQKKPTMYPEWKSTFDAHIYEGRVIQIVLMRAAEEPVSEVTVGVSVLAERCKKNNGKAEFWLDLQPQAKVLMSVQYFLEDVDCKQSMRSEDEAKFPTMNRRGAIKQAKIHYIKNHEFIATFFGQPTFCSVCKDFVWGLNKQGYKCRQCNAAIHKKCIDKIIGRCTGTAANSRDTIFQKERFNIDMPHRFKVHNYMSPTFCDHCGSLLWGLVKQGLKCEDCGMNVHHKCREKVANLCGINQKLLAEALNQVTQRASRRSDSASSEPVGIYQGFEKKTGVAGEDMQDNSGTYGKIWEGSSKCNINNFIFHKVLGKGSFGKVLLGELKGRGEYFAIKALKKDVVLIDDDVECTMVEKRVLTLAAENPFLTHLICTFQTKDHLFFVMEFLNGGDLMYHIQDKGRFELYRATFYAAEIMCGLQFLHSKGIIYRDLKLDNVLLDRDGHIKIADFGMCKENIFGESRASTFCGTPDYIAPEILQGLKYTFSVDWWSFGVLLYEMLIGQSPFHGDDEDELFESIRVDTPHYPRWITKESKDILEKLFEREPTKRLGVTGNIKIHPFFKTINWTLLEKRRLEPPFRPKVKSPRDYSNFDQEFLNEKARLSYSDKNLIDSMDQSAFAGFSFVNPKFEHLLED

[7] = Inhibition of antiCD3 and antiCD28 antibody-stimulated rat blood T lymphocyte proliferation incubated 1 hr before antibody challenge measured after 52 hrs by radioactive [3H]-thymidine incorporation assay; type: tissue-based; settings: T-cell
[8] = Intrinsic aqueous solubility of the compound; type: physicochemical; settings: read-out: Intrinsic_solubility
[9] = Lipophilicity, log P of the compound; type: physicochemical; settings: octanol/water
[10] = Octanol-water distribution coefficient, log D of the compound at pH 6.8; type: physicochemical
[11] = Plasma protein binding in human by rapid equilibrium dialysis method; type: ADME, cell-free; settings: read-out: PPB (converted)
[12] = Plasma protein binding in rat by rapid equilibrium dialysis method; type: ADME, cell-free; settings: read-out: PPB (converted)
[13] = AUC (infinity) in Lewis rat at 5 mg/kg, iv; type: ADME, organism-based; set-up: dose 5 mg/kg, route intravenous, time infinity; settings: plasma
[14] = Elimination half life in Lewis rat at 5 mg/kg, iv; type: ADME, organism-based; set-up: dose 5 mg/kg, route intravenous; settings: in vivo, read-out: beta t1/2 (converted)
[15] = Clearance in Lewis rat at 5 mg/kg, iv; type: ADME, organism-based; set-up: dose 5 mg/kg, route intravenous; settings: in vivo
[16] = Volume of distribution at steady state in Lewis rat at 5 mg/kg, iv; type: ADME, organism-based; set-up: dose 5 mg/kg, route intravenous; settings: in vivo, read-out: Vdss
[17] = AUC (infinity) in Lewis rat at 10 mg/kg, po; type: ADME, organism-based; set-up: time infinity, dose 10 mg/kg, route oral; settings: plasma
[18] = Tmax in Lewis rat at 10 mg/kg, po; type: ADME, organism-based; set-up: dose 10 mg/kg, route oral; settings: in vivo
[19] = Cmax in Lewis rat at 10 mg/kg, po; type: ADME, organism-based; set-up: dose 10 mg/kg, route oral; settings: in vivo
[20] = Oral bioavailability in Lewis rat at 10 mg/kg; type: ADME, organism-based; settings: in vivo
Mus musculus [21] = species on record: Mus musculus; test: animal or person; type: functional; settings: BALB/c, route oral
Mus musculus [22] = species on record: Mus musculus; test: animal or person; type: functional; settings: BALB/c, route oral; remark: listed apart in the source
[23] = Dissociation constant, pKa of the compound; type: physicochemical

Chain of Protein kinase C beta type (P05771 whole entry): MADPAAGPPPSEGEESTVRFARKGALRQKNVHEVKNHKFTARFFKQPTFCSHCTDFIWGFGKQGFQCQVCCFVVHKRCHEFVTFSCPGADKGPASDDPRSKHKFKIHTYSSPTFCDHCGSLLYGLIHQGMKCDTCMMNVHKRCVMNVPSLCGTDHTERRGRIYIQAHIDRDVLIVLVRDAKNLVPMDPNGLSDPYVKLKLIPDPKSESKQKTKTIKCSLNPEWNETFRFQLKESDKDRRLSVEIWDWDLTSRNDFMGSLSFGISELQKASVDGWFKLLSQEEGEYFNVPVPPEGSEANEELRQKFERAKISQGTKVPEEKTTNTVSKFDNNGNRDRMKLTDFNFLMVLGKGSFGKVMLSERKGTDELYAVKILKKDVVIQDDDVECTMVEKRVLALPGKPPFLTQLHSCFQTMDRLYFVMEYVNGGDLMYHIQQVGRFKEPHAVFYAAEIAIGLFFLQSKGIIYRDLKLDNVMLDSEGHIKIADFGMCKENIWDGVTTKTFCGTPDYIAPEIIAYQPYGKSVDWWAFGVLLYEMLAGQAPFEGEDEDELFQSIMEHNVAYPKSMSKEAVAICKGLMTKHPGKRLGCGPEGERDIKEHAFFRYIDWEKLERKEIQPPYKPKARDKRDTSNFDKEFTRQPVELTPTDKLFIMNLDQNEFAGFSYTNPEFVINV

Compound | IC50 [1] [nM] | IC50 [2] [nM] | IC50 [3] [nM] | IC50 [4] [nM] | IC50 [5] [nM] | IC50 [6] [nM] | other results
NCCNc1nc(-c2ccncc2)cc2cnccc12 | 859 |  |  |  |  |  | 
c1cc(-c2cc3cnccc3c(N3CCNCC3)n2)ccn1 | 823 | > 1000 | 8 | 6 | 109 |  | 
NCCNc1nc(-c2ccncc2)cc2ccccc12 | > 1000 | > 1000 | 877 | 743 | > 1000 | > 1000 | 
NCCNc1nc(-c2ccncc2)cc2ncccc12 | > 1000 | > 1000 | 929 | 401 | > 1000 | > 1000 | 
NCCNc1nc(-c2ccncc2)cc2ccncc12 | > 1000 | > 1000 | > 1000 | > 1000 | > 1000 | > 1000 | 
NCCNc1cc(-c2ccncc2)cc2cnccc12 | > 1000 | > 1000 | 44 | 54 | 355 | 157 | IC50 [7]: 1040 nM
NCCNc1nc(-c2ccncc2)nc2cnccc12 | > 1000 | > 1000 | 38 | 27 | > 1000 | 102 | 
NCCOc1nc(-c2ccncc2)cc2cnccc12 | > 1000 | > 1000 | 120 | 82 | 948 | 703 | 
C[C@H](N)CNc1nc(-c2ccncc2)cc2cnccc12 | 378 | 829 | 5 | 2 | 55 | 8 | IC50 [7]: 138 nM; solubility [8]: > 400 µg/mL; logP [9]: 2.2; logD [10]: -0.3; fraction unbound [11]: 0.42; fraction unbound [12]: 0.37; AUC(0-inf) [13]: 1770 ng·h/mL; half-life [14]: 8.1 h; clearance [15]: 49 mL/min/kg; Vd [16]: 14 L/kg; AUC(0-inf) [17]: 712 ng·h/mL; Tmax [18]: 2 h; Cmax [19]: 53 ng/mL; bioavailability [20]: 20%; inhibition in vivo at 50 mg/kg (Mus musculus [21]): 37%; inhibition in vivo at 100 mg/kg (Mus musculus [22]): 70%; pKa [23]: 9
NC(CNc1nc(-c2ccncc2)cc2cnccc12)Cc1ccccc1 (stereo not given) | > 1000 | 818 | 403 | 452 | > 1000 | 932 | 
CN(CCN)c1nc(-c2ccncc2)cc2cnccc12 | > 1000 | > 1000 | 24 | 34 | 350 | 371 | 
CNCCNc1nc(-c2ccncc2)cc2cnccc12 | > 1000 | > 1000 | 79 | 93 | 997 | 254 | 
c1cc(-c2cc3cnccc3c(N3CCCNCC3)n2)ccn1 | 661 | 433 | 7 | 4 | 77 | 63 | 
NC1CCCN(c2nc(-c3ccncc3)cc3cnccc23)C1 (stereo not given) | 865 | 771 | 8 | 13 | 132 | 214 | 
NCCCNc1nc(-c2ccncc2)cc2cnccc12 | 779 | 676 | 13 | 10 | 97 | 53 | 
OCCNc1nc(-c2ccncc2)cc2cnccc12 | > 1000 | > 1000 | 81 | 188 | 743 | 635 | 
O=C1CN(c2nc(-c3ccncc3)cc3cnccc23)CCN1 | > 1000 | > 1000 | 802 | 735 | > 1000 | > 1000 | 
CC(C)(N)CNc1nc(-c2cccnc2)cc2cnccc12 | > 1000 | > 1000 | > 1000 | > 1000 | > 1000 | > 1000 | 
CC(C)(N)CNc1nc(-c2ccnc(N)c2)cc2cnccc12 | > 1000 | 378 | 147 | 60 | 496 | 294 | 
CC(C)Nc1cc(-c2cc3cnccc3c(NCC(C)(C)N)n2)ccn1 | > 1000 | > 1000 | > 1000 | 862 | > 1000 | > 1000 | 
CC(C)(N)CNc1nc(-c2ccncc2F)cc2cnccc12 | 961 | > 1000 | 62 | 18 | 140 | 124 | 
CC(C)(N)CNc1nc(-c2ccncc2Cl)cc2cnccc12 | > 1000 | > 1000 | 47 | 15 | 93 | 221 | 
Cc1cnccc1-c1cc2cnccc2c(NCC(C)(C)N)n1 | > 1000 | > 1000 | 133 | 52 | 738 | 386 | 
